The values that follow come from patent US9796662B2 (priority 2010, dated 2017).

In the case of `C=CCCCCCCCC(=O)OCC[N+](C)(C)C` [C10-7, C10 DMEA Ester Quat], the “Emulsion stability, mL separation, 1 h, Adjuvant” value turned out to be 0 mL; the “Emulsion stability, mL separation, 1 h, Anionic” value is 0 mL; the “Emulsion stability, mL separation, 1 h, Nonionic” value is on record as 0 mL; the “Emulsion stability, mL separation, 24 h, Adjuvant” value was 0 mL. The “Emulsion stability, mL separation, 24 h, Anionic” value was 0 mL and the “Emulsion stability, mL separation, 24 h, Nonionic” value is listed as 0 mL.

For the compound `CC/C=C/CCCCCCCC(=O)OCC[N+](C)(C)C` [C12-7, C12 DMEA Ester Quat], the “Emulsion stability, mL separation, 1 h, Adjuvant” value amounted to 0 mL; the “Emulsion stability, mL separation, 1 h, Anionic” value came out at 0 mL; the “Emulsion stability, mL separation, 1 h, Nonionic” value amounted to 0 mL; the “Emulsion stability, mL separation, 24 h, Adjuvant” value was 0 mL. Besides, the “Emulsion stability, mL separation, 24 h, Anionic” value is given as 0 mL and the “Emulsion stability, mL separation, 24 h, Nonionic” value was 0 mL.

Regarding `C[N+](C)(C)CCOC(=O)CCCCCCC/C=C/CCCCCCCC(=O)OCC[N+](C)(C)C` [Mix-16, C18 diMEA DiQuat], the “Emulsion stability, mL separation, 1 h, Adjuvant” value is 0.25 mL; the “Emulsion stability, mL separation, 1 h, Anionic” value is recorded as 0 mL; the “Emulsion stability, mL separation, 24 h, Adjuvant” value worked out at 0.25 mL; the “Emulsion stability, mL separation, 24 h, Anionic” value worked out at 0 mL.
